Laboratory results: paper PMC6476928 (Frontiers in Pharmacology, 2019)
Changes are numbered by the printed parent chain.

Tests used:
kv2.1 = details: 5µM, X. laevis oocytes; cited from earlier work
From the text: Supplement Data_Sheet_1.docx, table 1: Supplementary Table 1.Activity of spider toxins on Kv2 and Kv4 channel subtypes Activities of spider toxins against different subtypes of Kv2 and Kv4 potassium channels are reported as IC50 (nanomolar) or as percentage of current inhibition at a single dose (nanomolar). Affinity (IC50) measurements | column: kv2.1 || Animal toxins target ion channels, and are thus valuable resources with potential therapeutic applications. The Kv4 subfamily from scorpion ([Maffie et al., 2013]; [Xie et al., 2014]) and spider venom ([Escoubas et al., 2002]; [Ebbinghaus et al., 2004]; [Yuan et al., 2007], [2012]; [DeSimone et al., 2009]) has a rich toxin pharmacology. HaTx, originally isolated from venom of the Chilean rose tarantula (Grammostola spatulata), inhibits Kv4.2 channels effectively, with similar affinity for Kv2.1 ([Swartz and MacKinnon, 1995]; [Swartz, 2007]). Other Kv4 channel inhibitors, Stromatoxin (ScTx1) fr ...

[1] = test system: action potential of NRVMs; assay: Action potential recording in neonatal rat ventricular myocytes; format: cell-based; details: 100 nM JZTX-V
From the text: Neonatal rat ventricular myocytes cells were obtained from ventricles of neonatal Sprague–Dawley rats as previously reported ([Sung et al., 2012]; [Yan et al., 2018]). SD rats (Hunan SJA Laboratory Animal Co., Ltd., Changsha, China) were used according to the guidelines of the National Institutes of Health for Care and Use of Laboratory Animals. The experiments were approved by the Animal Care and Use Committee of Hunan Normal University.
The APs, Pipette solution contained (mM) 120 KCl, 1 MgCl2, 10 EGTA, 10 Hepes, and 3 MgATP (pH = 7.4). The extracellular buffer contained (mM) 140 NaCl, 5.4 KCl, 1.3 CaCl2, 0.5 MgCl2, 5 Hepes, and 5.5 glucose (pH = 7.4).
(§1) All data points are shown as mean SEM.

Kv4.2 = target: T1, Kv4.2 (Homo sapiens, UniProt Q9NZV8); assay: Whole-cell patch clamp of WT Kv4.2 co-expressed with KChIP2 in HEK293T cells; format: cell-based; set-up: expressed in transfected cells; host or cells: HEK293T
T1 sequence (Q9NZV8 1-630): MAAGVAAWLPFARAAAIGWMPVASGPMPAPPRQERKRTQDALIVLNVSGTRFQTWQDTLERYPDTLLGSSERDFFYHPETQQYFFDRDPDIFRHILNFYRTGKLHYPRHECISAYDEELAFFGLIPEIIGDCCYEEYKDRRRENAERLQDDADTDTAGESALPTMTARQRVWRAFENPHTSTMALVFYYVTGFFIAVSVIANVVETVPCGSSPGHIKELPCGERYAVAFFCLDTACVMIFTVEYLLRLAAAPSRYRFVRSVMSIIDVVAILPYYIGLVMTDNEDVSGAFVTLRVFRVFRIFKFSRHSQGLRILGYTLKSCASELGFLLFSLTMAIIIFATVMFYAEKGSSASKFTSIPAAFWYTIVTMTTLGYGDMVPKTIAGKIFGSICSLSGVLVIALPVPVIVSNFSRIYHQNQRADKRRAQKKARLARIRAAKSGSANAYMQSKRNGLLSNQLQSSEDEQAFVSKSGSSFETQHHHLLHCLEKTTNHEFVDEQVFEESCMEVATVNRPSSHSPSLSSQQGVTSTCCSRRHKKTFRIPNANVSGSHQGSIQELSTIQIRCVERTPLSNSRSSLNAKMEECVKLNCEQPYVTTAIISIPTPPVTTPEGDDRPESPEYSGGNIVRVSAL
T1 sequence (Q9NS61 1-270 partner): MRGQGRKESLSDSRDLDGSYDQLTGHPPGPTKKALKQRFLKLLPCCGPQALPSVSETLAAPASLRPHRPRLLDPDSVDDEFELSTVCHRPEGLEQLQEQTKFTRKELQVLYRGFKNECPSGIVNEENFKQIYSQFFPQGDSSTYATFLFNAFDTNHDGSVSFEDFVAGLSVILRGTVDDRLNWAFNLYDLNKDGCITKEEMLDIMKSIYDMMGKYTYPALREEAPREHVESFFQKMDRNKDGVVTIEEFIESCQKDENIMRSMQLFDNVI
Experimental: (§2) Human embryonic kidney cell line (HEK293T) was obtained from Shanghai Institute of Cell Biology, Chinese Academy of Sciences (Shanghai, China) and maintained with 5% CO2 at 37°C in DMEM supplemented with 10% heat-inactivated fetal calf and serum (FBS), penicillin (100 U/ml), and streptomycin (100 μg/ml). The WT/mutant Kv4.2 plasmids were transiently transfected into HEK293T by Lipofectamine^TM 2000 Reagent (Invitrogen), and the KChIP2 subunits were co-transfected with Kv4.2.
(§3) The extracellular buffer and pipette solution for AP, Ito, and Kv4.2 were used as follows.
Kv4.2 current, The pipette solution contained (mM) 140 KF, 5 ATP-2Na, 1 EGTA, and 10 HEPEs (pH = 7.4). […] The Kv4.2 currents were elicited by a 300-ms depolarizing voltage of 10 mV from a holding potential of −80 mV. The steady-state activation of Kv4.2 was measured with the holding potential −80 mV and applied from −80 mV to 70 mV (10-mV increments). Steady-state inactivation of Kv4.2 channel measured with a series of a 300-ms depolarizing test potential of 10 mV followed a 1000-ms prepulse at potentials ranging from −120 to +70 mV with a 5-mV increment.
Data were analyzed using the clampfit (Axon) and Origin 9 software programs. All data points are shown as mean SEM. The significance was estimated using unpaired two-tailed t-tests, and a P < 0.05 was considered statistically significant. n stands for the number of the separate experimental cells. […] The steady-state activation relationship was measured using Boltzmann function (f(V) = 1/{1 + exp[−(V−V1/2)/k]}^4). Steady-state inactivation was measured using the Boltzmann function f(V) = 1/{1 + exp[−(V − V1/2)/k]}.

[2] = test system: Kv4.2 S1–S2 linker mutants; assay: Patch clamp of Kv4.2 S1–S2 linker alanine mutants in HEK293T cells; format: cell-based; details: all S1–S2 linker mutants, N = 5
From the text: as §1

Kv4.2 V290A = target: T2, Kv4.2 V290A (Homo sapiens, UniProt Q9NZV8, V290A); assay: Patch clamp of Kv4.2 mutant V290A in HEK293T cells; format: cell-based
T2 construct: expressed in transfected cells; host or cells: HEK293T
T2 sequence (Q9NZV8 1-630 V290A): T1 sequence (Q9NZV8 1-630) with V290A
T2 sequence (Q9NS61 1-270 partner): T1 sequence (Q9NS61 1-270 partner)
Experimental: as §2, §3
Kv4.2 current, The pipette solution contained (mM) 140 KF, 5 ATP-2Na, 1 EGTA, and 10 HEPEs (pH = 7.4). […] The steady-state activation of Kv4.2 was measured with the holding potential −80 mV and applied from −80 mV to 70 mV (10-mV increments). Steady-state inactivation of Kv4.2 channel measured with a series of a 300-ms depolarizing test potential of 10 mV followed a 1000-ms prepulse at potentials ranging from −120 to +70 mV with a 5-mV increment.
Data were analyzed using the clampfit (Axon) and Origin 9 software programs. […] The steady-state activation relationship was measured using Boltzmann function (f(V) = 1/{1 + exp[−(V−V1/2)/k]}^4). Steady-state inactivation was measured using the Boltzmann function f(V) = 1/{1 + exp[−(V − V1/2)/k]}.

**Q.** With `CC[C@H](C)[C@H](NC(=O)[C@@H](NC(=O)[C@H](CCCCN)NC(=O)[C@H](CCCNC(=N)N)NC(=O)[C@@H]1CSSC[C@@H]2NC(=O)[C@H](C)NC(=O)[C@H](CCCNC(=N)N)NC(=O)[C@H](CCCCN)NC(=O)[C@H](CO)NC(=O)[C@H](CC(=O)O)NC(=O)[C@@H]3CSSC[C@H](NC(=O)[C@H](CCCNC(=N)N)NC(=O)[C@H](CC(C)C)NC(=O)CNC(=O)[C@H](CCC(=O)O)NC(=O)[C@H](CSSC[C@H](NC(=O)[C@@H](N)Cc4ccc(O)cc4)C(=O)N[C@@H](CCC(N)=O)C(=O)N[C@@H](CCCCN)C(=O)N[C@@H](Cc4c[nH]c5ccccc45)C(=O)N[C@@H](CCSC)C(=O)N[C@@H](Cc4c[nH]c5ccccc45)C(=O)N[C@@H]([C@@H](C)O)C(=O)N3)NC2=O)C(=O)N[C@@H](CCCCN)C(=O)N[C@@H](CC(C)C)C(=O)N[C@@H](Cc2c[nH]c3ccccc23)C(=O)N1)[C@@H](C)CC)C(=O)O` [JZTX-V, Jingzhaotoxin-V] as the compound, how does the “percentage of current inhibition kv2.1” value (kv2.1) read?
**A.** 35% (5µM) O

**Q.** And the “APD10 compared with vehicle-treated group” value ([1]; 1 Hz, N = 5)?
**A.** 123.53 ± 4.23%

**Q.** What about the “APD50 compared with vehicle-treated group” value ([1]; 1 Hz, N = 5) of the same compound?
**A.** 124.34 ± 3.17%

**Q.** And the “APD90 compared with vehicle-treated group” value ([1]; 1 Hz, N = 5)?
**A.** 126.26 ± 3.23%

**Q.** What about the “effect on APD10–50” value ([1]; N = 5) of the same compound?
**A.** did not affect

**Q.** What about the “effect on APD50–90” value ([1]; N = 5) of the same compound?
**A.** did not affect

**Q.** What about the APD10 after treatment ([1]; control 12 ± 1 ms) of the same compound?
**A.** 15 ± 1.7 ms

**Q.** And the APD50 after treatment ([1]; control 88 ± 6 ms)?
**A.** 109 ± 8 ms

**Q.** What about the APD90 after treatment ([1]; control 245 ± 7 ms) of the same compound?
**A.** 309 ± 10 ms

**Q.** And the inhibition at 0.1 µM (Kv4.2; HEK-293T, read-out: inhibition of Kv4.2 potassium current)?
**A.** > 90%

**Q.** And the “V1/2 of steady-state activation (G–V curve)” value (Kv4.2; in presence of 10 nM JZTX-V, +20 mV in absence)?
**A.** +30 mV

**Q.** What about the “half-maximal inactivation potential (Vin1/2)” value (Kv4.2; in presence of 10 nM JZTX-V, −44.5 mV without) of the same compound?
**A.** −50.0 mV

**Q.** And the “JZTX-V binding affinity for Kv4.2 S1–S2 linker alanine mutants” value [2]?
**A.** only a slight decrease

**Q.** What about the “reduction of sensitivity to the toxin vs WT Kv4.2” value (Kv4.2 V290A) of the same compound?
**A.** ~12 fold
